# Assay results from paper PMC6153800, “Structure-Based Drug Design and Characterization of Sulfonyl-Piperazine Benzothiazinone Inhibitors of DprE1 from Mycobacterium tuberculosis” (Antimicrobial Agents and Chemotherapy, 2018).
# Tested on: M. tuberculosis NTB1 (DprE1 C387S mutant)
# Type: cell-based, Mycobacterium tuberculosis
row,Structure (SMILES),MIC99 NTB1
1,"CO[C@H]1/C=C/O[C@@]2(C)Oc3c(C)c(O)c4c(O)c(c(/C=N/N5CCN(C)CC5)c(O)c4c3C2=O)NC(=O)/C(C)=C\C=C\[C@H](C)[C@H](O)[C@@H](C)[C@@H](O)[C@@H](C)[C@H](OC(C)=O)[C@@H]1C [Rifampin, reference compound]",0.0008 µg/mL
2,"O=c1nc(N2CCN(CC3CCCCC3)CC2)sc2c([N+](=O)[O-])cc(C(F)(F)F)cc12 [PBTZ169, macozinone, reference compound]",>100 µg/mL
3,O=c1nc(N2CCN(S(=O)(=O)c3cccc4cnccc34)CC2)sc2c([N+](=O)[O-])cc(C(F)(F)F)cc12 [compound 11626094],>100 µg/mL
4,CCS(=O)(=O)N1CCN(c2nc(=O)c3cc(C(F)(F)F)cc([N+](=O)[O-])c3s2)CC1 [compound 11626092],25.1 µg/mL
5,CS(=O)(=O)N1CCN(c2nc(=O)c3cc(C(F)(F)F)cc([N+](=O)[O-])c3s2)CC1 [compound 11626095],75 µg/mL
6,CCCCS(=O)(=O)N1CCN(c2nc(=O)c3cc(C(F)(F)F)cc([N+](=O)[O-])c3s2)CC1 [compound 11626093],>100 µg/mL
7,O=c1nc(N2CCN(S(=O)(=O)c3cccs3)CC2)sc2c([N+](=O)[O-])cc(C(F)(F)F)cc12 [compound 11326059],>100 µg/mL
8,O=c1nc(N2CCN(S(=O)(=O)C3CCCCC3)CC2)sc2c([N+](=O)[O-])cc(C(F)(F)F)cc12 [compound 11326127],>100 µg/mL
9,O=c1nc(N2CCN(S(=O)(=O)C3CC3)CC2)sc2c([N+](=O)[O-])cc(C(F)(F)F)cc12 [compound 11626091],14.7 µg/mL
